Reference: patent US8486924B2, “Taxane delivery system” (Celator Pharmaceuticals, Inc., priority 2007, dated 2013)

Columns and labels:
[1] = prodrug/POPC/2.5kPS3k (1:1:2) nanoparticles in water; volume weighted average
Procedure: The prodrug, co-lipid and stabilizer polymers (typically on a 1:1:2 w/w basis) were dissolved in ethanol/THF (4:1) at a concentration of 40 mg/ml. The solvent was rapidly diluted with water using a four port CVIJ mixer^13, 14 with flow rates set at […] (solvent/water/water/water). Flow rates were controlled using Harvard Apparatus PHD2000 syringe pumps. The resultant solution was then dialyzed against water to remove residual solvent. […] When higher concentrations were required the dialyzed solution was diluted with equi-volumes of 600 mM sucrose and then concentrated using a 100 kD, 0.5 mm lumen, 60 cm path length MidGee hoop cartridge (GE Healthcare Life Sciences, Piscataway, N.J.) with a peristaltic pump. Particle size was determined using a Malvern Zetasizer Nano-ZS particle sizer and reported as volume weighted data.
Formulations were composed of a prodrug, a co-lipid and an amphipathic stabilizer in a weight ratio of 1:1:2, respectively at a concentration of 40 mg per mL of solvent. […] Poly(ethylene glycol)-b-polystyrene (2kPS3k or 2.5kPS3k) was used as the amphipathic stabilizer. Other stabilizers may also be used.

[2] = co-lipid POPC, prodrug/co-lipid/2.5kPS3k (1:1:2), vortexing 30 seconds
Procedure: The physical stability of formulations was investigated by examining changes in particle size after vortexing prodrug/co-lipid/2.5kPS3k (1:1:2) nanoparticles in water, 150 mM saline or 300 mM sucrose (Table 1). […] The increase in particle size was monitored by using dynamic light scattering to measure the Z average (the intensity weighted mean size of the particle distribution) value for samples before and after vigorous vortexing. The change in the Zave value was used as surrogate readout for the formation of aggregates or precipitates resulting from mechanical instability, where a higher value for ΔZave indicated a higher level of aggregation or precipitation (Table 1).

[3] = test system: HT29 human colon carcinoma cells
Procedure: Female athymic nude mice (7-8 weeks old) were inoculated subcutaneously with 100 μl HT29 human colon carcinoma cells (2×10^6 cells) using a 26 gauge needle. Mice were randomly grouped (n=6/group) with a mean tumor size between 80 and 120 mg prior to first treatment. […] Subsequent injections were made according to the designated schedule. Tumor length and width measurements, body weight and in life observations were recorded 2-3 times per week. Tumor weight was calculated according to the formula (L×W^2)/2.
The relative efficacies of nanoparticle formulations of 1, 2, 4, 5, 6 and 7 were determined in the HT29 model using a 36 μmol/kg dose on a Q4Dx6 schedule (FIG. 3). Saline was used as a negative control.
(§1) The activity of 7 in POPC/2.5kPS3k nanoparticle formulations relative to paclitaxel was determined by comparing the efficacy of doses ranging from 0.25 to 3 mole equivalents of paclitaxel (FIG. 4) in the HT29 tumor model. Taxol® dosed at 23 μmol/kg on a Q2Dx5 schedule was used as a positive control.
The tumor growth data was analyzed by two methods to determine what dose of 7 would be equivalent to the Taxol® positive control.

[4] = Maximum tolerated dose on Q2D schedule in HT29 tumor model; type: in vivo, mice; conditions: POPC/2.5kPS3k nanoparticle formulation; Q2Dx5 schedule
Procedure: as §1, with “control. The dosing regime was chosen since the greatest efficacy for 7 was observed on a Q2D schedule, which was also optimal for Taxol®, and the maximum tolerated treatment course at this Taxol® dose was 5 injections. The maximum tolerate dose of 7 on this schedule was approximately 3 paclitaxel equivalents (69 μmol/kg).” for “control.”

[5] = test system: MCF-7 human tumor cell line; conditions: read-out: IC50 values MCF-7; prodrug/POPC/2kPS3k (1:1:2) formulations; 72 hours; MTT; ± SD
[6] = mouse, in vivo
Procedure: Athymic nude mice (n=3/timepoint) were injected iv with test samples (10 μl/g body weight, to a maximum of 250 μl). Blood was collected at the designated time point by cardiac puncture and placed into EDTA coated microtainer tubes (BD Biosciences). The tubes were centrifuged at 2800 rpm for 10 minutes. Plasma was recovered and 50 μl aliquots analyzed by HPLC for drug content. Samples containing ^3H—CHE (50 μl) were diluted with PicoFluor40™ scintillation fluid (Packard) and counted on a Beckman-Coulter LS 6500 Multipurpose scintillation counter. The total drug (counts) per mouse in the blood compartment was calculated assuming a plasma volume of 0.04125 mL per gram of body weight.
Elimination studies tracking both the prodrug and the particle were conducted to obtain a more accurate description of the partitioning behavior of the prodrugs in vivo (FIG. 1). Prodrug elimination was followed by HPLC, while particle elimination rates were determined by labeling nanoparticles with tritiated cholesterylhexadecyl ether (3H—CHE).
Formulations comprised of 1/VES/2kPS3k (1:1:2) and 2/VES/2kPS3k (1:1:2) were labeled with trace amounts of ^3H—CHE and plasma levels of both the label and prodrug were monitored in Foxn1^nu mice (FIG. 1, Panel A).
Effect of prodrug partitioning on plasma drug elimination was determined. The prodrug panel was screened using prodrug/POPC/2kPS3k (1:1:2) nanoparticles in Foxn1^nu mice to determine elimination rates for the different prodrug conjugates (FIG. 2). […] Conjugates were formulated at a concentration of 0.7 mg/mL.
In order to estimate the partitioning half-life for each prodrug, it was assumed that 1 tracked the particle elimination rate based on the results discussed above. The elimination of all other prodrugs were then fitted to four parameter double exponential decay curves and normalized against 1.

[7] = test system: A2780 human tumor cell line; experiment: MTT growth inhibition, A2780 cells, 72 hours; conditions: read-out: IC50 values A2780, prodrug/POPC/2kPS3k (1:1:2) formulations, ± SD

## CCCCCCCCCCCCCCCCCCCCCCOC(=O)COCC(=O)OC(C(=O)OC1CC2(O)C(OC(=O)c3ccccc3)C3C4(OC(C)=O)COC4CC(O)C3(C)C(=O)C(OC(C)=O)C(=C1C)C2(C)C)C(NC(=O)c1ccccc1)c1ccccc1 (stereo not shown) [Prodrug 7, 2′-O-(5″-O-docosanyldiglycoloyl)-paclitaxel]
[1]
  Diameter: 23 nm
[2]; 150 mM saline
  ΔZave 150 mM saline: 24 nm
[2]; 300 mM sucrose
  ΔZave 300 mM sucrose: 0 nm
[2]; water
  ΔZave water: 18 nm
[3]; HT29, Q2Dx5, fitted curve, normalized to Taxol 23 μmol/kg
  dose achieving parity with Taxol (delay in reaching tumor size of 125 mg from start of treatment): 1.75 dose equivalents of paclitaxel
[3]; HT29, Q2Dx5, linear dose response, normalized to Taxol 23 μmol/kg
  dose achieving parity with Taxol (delay in reaching tumor size of 300 mg relative to saline): 1.65 paclitaxel equivalents
[3]; HT29, titration 0.25x to 3x paclitaxel equivalents
  dose achieving equivalent efficacy to Taxol at MTD: approximately 1.7 paclitaxel equivalents
[3]; HT29, treated at MTD, Q2Dx5
  tumor size at day 60: below 50 mg
[3]; HT29 model, 36 μmol/kg, Q4Dx6, nanoparticle formulations
  treatment induced delay in reaching a mean tumor size of 500 mm^3: 17 days
[4]
  maximum tolerated dose: 69 µmol/kg
[5]
  IC50: 23.5 ± 1.3 nM
[6]
  partitioning half life: ~10 h
[7]
  IC50: 29.5 ± 5.2 nM
